Measured values reported in patent US6620834B1, “Medicinal compositions for treating colorectal cancer” (Hisamitsu Pharmaceutical Co., Inc., priority 1999, dated 2003).

System: Yoshida's sarcoma
Assay: liver metastasis inhibitory effect in Yoshida's sarcoma rat model bearing a colorectal cancer
Type: in vivo
Conditions: Donryu rats, Yoshida's sarcoma injected to sigmoid subserous; intra-colon administration for 5 days, autopsy day 6; versus control group
Description: The solution was prepared in which pravastatin and aspirin were mixed in the mixing ratio below, and the pharmacological evaluation was carried out in the liver metastasis model of rat colorectal cancer.
The liver metastasis inhibitory effect was evaluated in the following procedure by use of the mix solution prepared in the example 1.
Donryu strain rats (8 weeks old) were used. Under a sodium pentobarbital anesthesia a catheter was inserted from the ileocecum into the colon, and the plug was put out from the back part and fixed. At the same time Yoshida's sarcoma (1.5×10^6cells/30 μl/rat) was injected to the sigmoid subserous.
The mix solution prepared in the example 1 was administered intra-colon or orally for 5 days from the next day after the surgery, and at day 6 a pathologic autopsy was made.
When the test on day 6 was finished, rats were killed by bleeding for a pathologic autopsy. The liver was isolated from each individual, fixed by a neutral buffered formalin solution, and a tissue section was then prepared to obtain histopathological findings. The metastasis inhibitory ratio was calculated comparing with the engraftment ratio of the cancer cells in the control group.

CC(=O)Oc1ccccc1C(=O)O [aspirin, Aspirin]
liver metastasis inhibitory effect: hardly observed
